Measured values published in patent US4550170A, “6-Phenyl-2,3,5,6-tetrahydroimidazo-[2,1-b]-thiazole derivatives” (Institut Organicheskoi Khimii Akademii Nauk Ukrainskoi SSR, priority 1984, dated 1985).
Read-outs that look alike come from different tables or passages of the source.

What was measured:
[1] = tested on: delayed-type hypersensitivity reaction; experiment: delayed-type hypersensitivity reaction to 2,4-dinitrochlorobenzene in guinea pigs; assay type: in vivo
[2] = tested on: delayed-type hypersensitivity reaction; experiment: delayed-type hypersensitivity reaction to rat's thymocytes in mice (popliteal lymph nodes); assay type: in vivo
[3] = physical properties of the compounds; assay type: physicochemical
[4] = in vivo; details: mouse, sc
[5] = tested on: IgE antibodies in respiratory organs
Experimental: The local production of IgE-antibodies in trachea and lungs of rats of the lines WAY, August with a mass of 250-300 g was induced by means of a successive (with the interval of 40 minutes) dropping a 0.1% solution of histamine and ambrosia allergen (10,000 PNU/ml) into both nasal passages. […] One day after the administration of the allergen IgE-antibodies were determined in homogenates of trachea and lungs prepared at the rate of 0.1 ml of a physiological solution per 10 mg of the tissue by the method of indirect degranulation of obese cells.

[6] = tested on: allergic reaction of the delayed type in mice; experiment: delayed-type (contact) hypersensitivity reaction to dinitrochlorobenzene, ear thickness in mice; assay type: in vivo, CBA mice; details: for Ear thickness, Control, Average value / Ear thickness, Control, Range of fluctuations: control (right) ear; for Ear thickness, Experiment, Average value / Ear thickness, Experiment, Range of fluctuations: test (left) ear
[7] = tested on: virus of vesicular stomatitis; assay type: cell-based
[8] = 100 μg/ml, negative = test value exceeded the control
[9] = 100 μg/ml, certainty: (II), (III) below 0.05, (I), levamizole above 0.05
[10] = 500 μg/ml, certainty: all below 0.05

## COC(=O)C[N+]1=C2SCCN2CC1c1ccccc1 (stereo not shown) [Compound (I), 2,3,5,6-tetrahydro-6-phenyl-7-methoxycarbonylmethylimidazo-[2,1-b]-thiazolium bromide]
[1]; [8]
  Difference in temperature of the pad surfaces, Average value: -1.5 ± 0.27 °C
  Difference in thickness of control and test talipes, Average value: -0.6 ± 0.062 mm
[2]; [8]
  Difference in masses of popliteal lymph nodes in the control and test limb, Average value: -1.1 ± 0.08 mg
[2]; 500 μg/ml
  Difference in masses of popliteal lymph nodes in the control and test limb, Average value: +1.3 ± 0.2 mg
[3]; acetone
  solubility in acetone: sparingly soluble
[3]; benzene
  solubility in benzene: sparingly soluble
[3]
  solubility in lower alcohols: soluble
  solubility in water: soluble
[4]
  LD50: 262 mg/kg
[5]; [9]
  Percent of degranulated mastocytes, Lungs: 19.4 ± 1.8%
  Percent of degranulated mastocytes, Trachea: 17.8 ± 1.3%
[5]; [10]
  Percent of degranulated mastocytes, Lungs: 9.3 ± 0.8%
  Percent of degranulated mastocytes, Trachea: 7.0 ± 0.2%

## CCCCCCCCCCOC(=O)C[N+]1=C2SCCN2CC1c1ccccc1 (stereo not shown) [Compound (II), 2,3,5,6-tetrahydro-6-phenyl-7-decyloxycarbonylmethylimidazo-[2,1-b]-thiazolium bromide]
[6]; 2.5 mg/kg per os
  Ear thickness, Control, Average value: 202.2 μm
  Ear thickness, Control, Range of fluctuations: 150-250 μm
  Ear thickness, Experiment, Average value: 222.8 μm
  Ear thickness, Experiment, Range of fluctuations: 175-300 μm
[6]; 25 mg/kg per os
  Ear thickness, Control, Average value: 178.9 μm
  Ear thickness, Control, Range of fluctuations: 150-240 μm
  Ear thickness, Experiment, Average value: 184.4 μm
  Ear thickness, Experiment, Range of fluctuations: 170-240 μm
[6]; ratio to levamizole
  dose sufficient for inhibition of the contact hypersensitivity, lower than that of levamizole: 10 times
[1]; 1,000 μg/ml
  Difference in temperature of the pad surfaces, Average value: +1.2 ± 0.16 °C
  Difference in thickness of control and test talipes, Average value: +0.63 ± 0.09 mm
[2]; 1,000 μg/ml
  Difference in masses of popliteal lymph nodes in the control and test limb, Average value: +1.3 ± 0.29 mg
[7]; 1 μg/ml
  Degree of inhibition of the virus reproduction: 10 times
[7]; 10 μg/ml
  Degree of inhibition of the virus reproduction: 100 times
[3]
  solubility in lower alcohols: soluble
  solubility in water: soluble
[4]
  LD50: 167 mg/kg
[5]; [9]
  Percent of degranulated mastocytes, Lungs: 6.8 ± 0.9%
  Percent of degranulated mastocytes, Trachea: 15.0 ± 1.8%
[5]; [10]
  Percent of degranulated mastocytes, Lungs: 6.5 ± 0.9%
  Percent of degranulated mastocytes, Trachea: 3.5 ± 1.2%
